Experiments:
[1] = system: KM mouse acetic acid-induced writhing model; assay: Analgesic efficacy in mouse acetic acid-induced writhing model; assay type: in vivo, KM mice; settings: single dose, writhes within 20 min, p < 0.05 vs solvent control
Procedure: 1. Objective: The analgesic efficacy of the example was evaluated in a KM mouse acetic acid-induced writhing model. 2. Experimental methods: 2.1 Experimental drugs: The compounds in examples of the present disclosure and reference compound were self-prepared. […] It was prepared using a solvent (Tween 80 + 0.5% MC (v:v = 1:99 pH = 3)). 2.2 Experimental animals: Male KM mice were purchased from Hubei Provincial Center for Disease Control and Prevention (Hubei Provincial Academy of Preventive Medicine), weighing 20 to 25 g at the time of purchase. 2.3 Experimental grouping: Table 6: Efficacy test grouping of compounds in the acetic acid-induced writhing model
2.5 Data collection and analysis • Data were collected using Excel software. • Data were analyzed using Prism (Graph pad software, Inc.) software. 3.

Nav1.7 = Nav1.7 (Homo sapiens, UniProt Q15858); assay: Sodium channel selectivity test, patch-clamp, Nav1.7; assay type: cell-based; settings: read-out: Nav1.7 Inhibition rate (%)
Nav1.7, sequence (Q15858 whole entry): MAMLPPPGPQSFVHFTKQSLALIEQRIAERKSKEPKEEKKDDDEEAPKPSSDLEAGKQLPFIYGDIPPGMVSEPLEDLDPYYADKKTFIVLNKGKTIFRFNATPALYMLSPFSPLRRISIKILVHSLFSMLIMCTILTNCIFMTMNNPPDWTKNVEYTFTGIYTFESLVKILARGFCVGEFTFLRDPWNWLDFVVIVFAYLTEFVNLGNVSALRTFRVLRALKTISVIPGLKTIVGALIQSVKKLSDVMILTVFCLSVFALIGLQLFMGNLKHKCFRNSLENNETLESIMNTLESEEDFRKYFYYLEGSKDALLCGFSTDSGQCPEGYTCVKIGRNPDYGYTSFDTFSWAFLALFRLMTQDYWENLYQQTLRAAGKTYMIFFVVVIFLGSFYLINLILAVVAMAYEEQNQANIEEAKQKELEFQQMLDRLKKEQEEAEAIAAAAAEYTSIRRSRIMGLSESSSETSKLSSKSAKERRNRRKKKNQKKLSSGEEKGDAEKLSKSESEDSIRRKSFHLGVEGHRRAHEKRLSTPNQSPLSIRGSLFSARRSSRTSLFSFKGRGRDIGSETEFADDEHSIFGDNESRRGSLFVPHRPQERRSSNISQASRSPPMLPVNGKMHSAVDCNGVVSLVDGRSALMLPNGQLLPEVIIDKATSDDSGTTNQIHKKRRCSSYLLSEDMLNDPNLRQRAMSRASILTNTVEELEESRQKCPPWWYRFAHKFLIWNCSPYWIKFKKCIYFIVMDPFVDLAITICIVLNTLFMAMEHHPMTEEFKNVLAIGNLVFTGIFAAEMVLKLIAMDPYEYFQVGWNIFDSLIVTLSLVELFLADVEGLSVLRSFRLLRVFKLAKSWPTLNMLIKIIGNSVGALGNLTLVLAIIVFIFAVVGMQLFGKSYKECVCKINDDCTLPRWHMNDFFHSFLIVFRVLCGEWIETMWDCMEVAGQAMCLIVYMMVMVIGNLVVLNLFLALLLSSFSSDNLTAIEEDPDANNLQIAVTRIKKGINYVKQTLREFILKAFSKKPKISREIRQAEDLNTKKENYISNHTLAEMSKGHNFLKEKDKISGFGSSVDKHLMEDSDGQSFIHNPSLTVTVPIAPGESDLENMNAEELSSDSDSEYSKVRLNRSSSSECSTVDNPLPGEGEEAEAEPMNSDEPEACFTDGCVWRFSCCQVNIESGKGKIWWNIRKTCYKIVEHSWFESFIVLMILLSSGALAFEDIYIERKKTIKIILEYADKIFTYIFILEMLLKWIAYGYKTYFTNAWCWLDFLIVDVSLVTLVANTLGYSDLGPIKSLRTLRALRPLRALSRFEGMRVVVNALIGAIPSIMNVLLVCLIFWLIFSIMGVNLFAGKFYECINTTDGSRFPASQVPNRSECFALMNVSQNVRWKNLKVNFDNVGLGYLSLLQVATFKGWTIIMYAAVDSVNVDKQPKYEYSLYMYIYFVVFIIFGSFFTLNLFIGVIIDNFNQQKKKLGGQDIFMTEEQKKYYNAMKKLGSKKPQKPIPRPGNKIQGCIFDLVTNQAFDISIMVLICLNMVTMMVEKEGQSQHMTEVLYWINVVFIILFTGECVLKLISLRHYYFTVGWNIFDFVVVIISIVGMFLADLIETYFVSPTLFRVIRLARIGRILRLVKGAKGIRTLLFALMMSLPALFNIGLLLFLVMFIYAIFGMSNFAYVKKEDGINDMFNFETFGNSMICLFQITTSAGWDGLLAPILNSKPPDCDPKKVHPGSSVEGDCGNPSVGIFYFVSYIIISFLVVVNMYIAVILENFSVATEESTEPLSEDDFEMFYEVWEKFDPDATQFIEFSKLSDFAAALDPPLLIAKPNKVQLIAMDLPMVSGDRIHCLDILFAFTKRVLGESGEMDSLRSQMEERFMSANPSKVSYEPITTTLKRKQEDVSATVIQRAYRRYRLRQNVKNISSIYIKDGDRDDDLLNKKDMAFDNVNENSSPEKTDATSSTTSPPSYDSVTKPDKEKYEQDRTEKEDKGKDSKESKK
Source text: Test Example 3: Selectivity test of the compounds of the present disclosure on sodium channels • 1. Experimental objective: The effects of the compounds on the current of the voltage-gated sodium channel (NaV) subtypes 1.1-1.7 were detected by patch-clamp technique • 2. Experimental materials and instruments • 2.1 Cell lines: CHO/HEK293 cell lines stably expressing Nav1.1-1.7 sodium channels, constructed in-house by the laboratory of Beijing ICE Bioscience Co., Ltd., (Reference: Jarvis MF, Honore P, Shieh CC, Chapman M, Joshi S, Zhang XF, Kort M, Carroll W, Marron B, Atkinson R, Thomas J, Liu D, Krambis M, Liu Y, McGaraughty S, Chu K, Roeloffs R, Zhong C, Mikusa JP, Hernandez G, Gauvin D, Wade C, Zhu C, Pai M, Scanio M, Shi L, Drizin I, Gregg R, Matulenko M, Hakeem A, Gross M, Johnson M, Marsh K, Wagoner PK, Sullivan JP, Faltynek CR, Krafte DS. A-803467, a potent and selective Nav1.8 sodium channel blocker, attenuates neuropathic and inflammatory pain in the rat. Proc Natl Acad Sci U S A. 2007 May 15;104(20):8520-5. doi: 10.1073/pnas.0611364104. Epub 2007 May 2. PMID: 17483457; PMCID: PMC1895982.), gene information Nav1.1: NM_006920; Nav1.2: NM_001040142; Nav1.3: NM_006922; Nav1.4: NM_000334; Nav1.5: NM198056; Nav1.6: NM014191; Nav1.7: […]. • 2.2 Compounds: Dissolved in DMSO, with sample concentration prepared at 30 µM. • 3. Experimental methods • 3.1 Cell culture • (1) Maintenance medium: CHO cells were cultured in HAM'S/F-12 medium containing 10% fetal bovine serum, 100 µg/mL Zeocin, and 10 µg/mL Blasticidin, under conditions of 37°C incubation temperature and 5% carbon dioxide concentration. HEK-293 cells were cultured in DMEM medium containing 10% fetal bovine serum and 800 µg/mL G418; the culture temperature was 37°C, and the carbon dioxide concentration was 5%. • (2) Cell passage: The old medium was removed, and the cells were washed once with PBS, then 1 mL of 0.25%-Trypsin-EDTA solution was added and incubated at 37°C for approximately 1.5 min. When the cells were detached from the bottom of the dish, about 5 mL of preheated complete medium at 37°C was added. […]

[2] = 30 mg/kg intragastric, second group set (solvent control 20.11 ± 3.55)
[3] = 100 mg/kg intragastric, second group set (solvent control 20.11 ± 3.55)

Compound: COCCOc1c([C@H]2[C@H](C(=O)Nc3ccc(F)c(C(=N)NO)c3)O[C@@](C)(C(F)(F)F)[C@H]2C)ccc(F)c1F [Example 10]
- Number of writhes ([1]; 30 mg/kg intragastric, first group set (solvent control 16.11 ± 5.84)): 12.10 ± 6.10
- inhibition at 30 µM (Nav1.7): 20.8%

Compound: C[C@H]1[C@@H](c2ccc(F)c(F)c2OC2COC2)[C@H](C(=O)Nc2ccc(F)c(C(=N)NO)c2)O[C@@]1(C)C(F)(F)F [Example 11]
- Number of writhes [1, 2]: 11.56 ± 5.15
- Number of writhes [1, 3]: 8.38 ± 6.12
- inhibition at 30 µM (Nav1.7): 14.8%

Compound: COc1c([C@H]2[C@H](C(=O)Nc3ccnc(C(N)=O)c3)O[C@@](C)(C(F)(F)F)[C@H]2C)ccc(F)c1F [Reference compound, reference compound]
- Number of writhes [1, 2]: 11.86 ± 3.53
- Number of writhes [1, 3]: 10.13 ± 3.64
- inhibition at 30 µM (Nav1.7): 11.1%

Reference: patent EP4775574A1, “FURAN RING-CONTAINING COMPOUND, PHARMACEUTICAL COMPOSITION THEREOF, AND USE THEREOF” (Wuhan Xirui Pharmaceutical Technology Co., Ltd, priority 2023, dated 2025)
